What was measured:
CYPSE (Flatsedge) = assay: Postemergence weed control under flooded paddy conditions; type: in vivo, Cyperus serotinus; conditions: postemergence weeds, 3-4 weeks after treatment
How it was run: (§1)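 Weeds 3 to 5 cm tall and rice seedlings at the 1.5 to 2.5 leaf stage were flooded, with water held 1.5 to 3 cm above the soil. Compounds in 50/50 v/v aqueous/acetone went into the flood water at about 0.0313 to 0.500 kg/ha. Visual 0-9 ratings versus control were made 3 to 4 weeks later.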

CYPIR (Rice Flatsedge) [1] = assay: Preemergence weed control under flooded paddy conditions; type: in vivo, Cyperus iria; conditions: rated 3-4 weeks after treatment
How it was run: (§2)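 Seeds or propagules sown in silt loam kept flooded 1.5-3 cm; compounds in 50/50 acetone/water pipetted into flood water at about 0.0313 to 0.500 kg/ha. Greenhouse; visual 0-9 rating versus untreated control 3-4 weeks after treatment.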

ZEAMX (Corn, Field) = assay: Preemergence herbicidal evaluation; type: in vivo, Zea mays; conditions: rated 4-5 weeks after treatment
How it was run: (§3)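 Preemergence soil application of compound, sprayed in aqueous acetone at rates equivalent to about 0.0156 to 0.500 kg per hectare onto freshly sown cups. Plant response was judged by eye on a 0-9 scale four to five weeks later.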

GALAP (Galium) = assay: Postemergence herbicidal evaluation; type: in vivo, Galium aparine; conditions: postemergence
How it was run: (§4)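 Seedlings grown about two weeks were sprayed at 40 psi with compound dispersed in 50/50 acetone/water plus 0.5% TWEEN 20, at about 0.0156 to 0.500 kg/ha. Plants were kept in the greenhouse and scored 4–5 weeks later on a 0–9 visual scale against untreated controls.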

CYPIR (Rice Flatsedge) [2] = assay: Postemergence weed control under flooded paddy conditions; type: in vivo, Cyperus iria; conditions: postemergence weeds, 3-4 weeks after treatment
How it was run: as §1

ABUTH (Velvetleaf) = assay: Postemergence herbicidal evaluation; type: in vivo, Abutilon theophrasti; conditions: postemergence
How it was run: as §4

[3] = test system: SAGPY (Arrowhead (Pygmaea)); assay: Postemergence weed control under flooded paddy conditions; type: in vivo, Sagittaria pygmaea; conditions: postemergence weeds, 3-4 weeks after treatment
How it was run: as §1

MOOVA (Monochoria) = assay: Preemergence weed control under flooded paddy conditions; type: in vivo, Monochoria vaginalis; conditions: rated 3-4 weeks after treatment
How it was run: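 Values are visual 0-9 scores against a control for a preemergence application into paddy flood water at about 0.0313 to 0.500 kg/ha. Greenhouse duration was three to four weeks.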

[4] = test system: ECHORC (Watergrass (Calif.)); assay: as above; type: in vivo, Echinochloa oryzoides; conditions: rated 3-4 weeks after treatment
How it was run: as §2

[5] = test system: TRZAWR (Wheat, Winter, cv Riband); assay: Preemergence herbicidal evaluation; type: in vivo, Triticum aestivum; conditions: rated 4-5 weeks after treatment
How it was run: as §3

SETVI (Foxtail, Green) = assay: Postemergence herbicidal evaluation; type: in vivo, Setaria viridis; conditions: postemergence
How it was run: as §4

ECHCG (Barnyardgrass) = assay: Postemergence herbicidal evaluation; type: in vivo, Echinochloa crus-galli; conditions: postemergence
How it was run: as §4

[6] = test system: IPOHE (Morningglory, Ivyleaf); assay: Preemergence herbicidal evaluation; type: in vivo, Ipomoea hederacea; conditions: rated 4-5 weeks after treatment
How it was run: as §3

ORYSAT (Rice, Tebonnet) = assay: Postemergence herbicidal evaluation; type: in vivo, Oryza sativa, (L.) Tebonnet; conditions: postemergence
How it was run: as §4

For CCOC(=O)/C=C1/S/C(=N/c2cc(-n3c(=O)cc(C(F)(F)F)n(C)c3=O)c(F)cc2Cl)N(CC(=O)OCC)C1=O [Compound 14], the “Herbicidal rating CYPSE” value (CYPSE (Flatsedge); rate 0.0313 kg/ha) was 0.0, the “Herbicidal rating CYPSE” value (CYPSE (Flatsedge); rate 0.0625 kg/ha) was 0.0 and the “Herbicidal rating CYPSE” value (CYPSE (Flatsedge); rate 0.1250 kg/ha) was 1.5. For the same molecule, the “Herbicidal rating CYPSE” value (CYPSE (Flatsedge); rate 0.2500 kg/ha) was 0.0, the “Herbicidal rating CYPIR” value (CYPIR (Rice Flatsedge) [1]; 0.0313 kg/ha) was 2.0 and the “Herbicidal rating CYPIR” value (CYPIR (Rice Flatsedge) [1]; 0.0625 kg/ha) was 2.5. For the same molecule, the “Herbicidal rating CYPIR” value (CYPIR (Rice Flatsedge) [1]; 0.1250 kg/ha) was 4.5, the “Herbicidal rating CYPIR” value (CYPIR (Rice Flatsedge) [1]; 0.2500 kg/ha) was 0.0 and the “ZEAMX preemergence herbicidal rating” value (ZEAMX (Corn, Field); rate 0.0313 kg/ha) was 0.0. The “ZEAMX preemergence herbicidal rating” value (ZEAMX (Corn, Field); rate 0.0625 kg/ha) was 0.0, the “ZEAMX preemergence herbicidal rating” value (ZEAMX (Corn, Field); rate 0.1250 kg/ha) was 1.5 and the “ZEAMX preemergence herbicidal rating” value (ZEAMX (Corn, Field); rate 0.2500 kg/ha) was 2.0. The “ZEAMX preemergence herbicidal rating” value (ZEAMX (Corn, Field); rate 0.5000 kg/ha) was 3.0, the GALAP herbicidal rating (GALAP (Galium); rate 0.0156 kg/ha) was 2.0 and the GALAP herbicidal rating (GALAP (Galium); rate 0.0313 kg/ha) was 4.0. For the same molecule, the GALAP herbicidal rating (GALAP (Galium); rate 0.0625 kg/ha) was 5.0, the GALAP herbicidal rating (GALAP (Galium); rate 0.1250 kg/ha) was 6.0 and the “Herbicidal rating CYPIR” value (CYPIR (Rice Flatsedge) [2]; rate 0.0313 kg/ha) was 4.0. The “Herbicidal rating CYPIR” value (CYPIR (Rice Flatsedge) [2]; rate 0.0625 kg/ha) was 5.8, the “Herbicidal rating CYPIR” value (CYPIR (Rice Flatsedge) [2]; rate 0.1250 kg/ha) was 6.8 and the “Herbicidal rating CYPIR” value (CYPIR (Rice Flatsedge) [2]; rate 0.2500 kg/ha) was 4.5. It also gave an ABUTH herbicidal rating (ABUTH (Velvetleaf); rate 0.0156 kg/ha) of 9.0, an ABUTH herbicidal rating (ABUTH (Velvetleaf); rate 0.0313 kg/ha) of 9.0 and an ABUTH herbicidal rating (ABUTH (Velvetleaf); rate 0.0625 kg/ha) of 9.0. The ABUTH herbicidal rating (ABUTH (Velvetleaf); rate 0.1250 kg/ha) was 9.0, the “Herbicidal rating SAGPY” value ([3]; rate 0.0313 kg/ha) was 0.0 and the “Herbicidal rating SAGPY” value ([3]; rate 0.0625 kg/ha) was 0.0. For the same molecule, the “Herbicidal rating SAGPY” value ([3]; rate 0.1250 kg/ha) was 0.0, the “Herbicidal rating SAGPY” value ([3]; rate 0.2500 kg/ha) was 0.0 and the “Herbicidal rating MOOVA” value (MOOVA (Monochoria); 0.0313 kg/ha) was 4.5. The “Herbicidal rating MOOVA” value (MOOVA (Monochoria); 0.0625 kg/ha) was 4.5, the “Herbicidal rating MOOVA” value (MOOVA (Monochoria); 0.1250 kg/ha) was 4.5 and the “Herbicidal rating MOOVA” value (MOOVA (Monochoria); 0.2500 kg/ha) was 0.0. The “Herbicidal rating ECHORC” value ([4]; 0.0313 kg/ha) was 1.5, the “Herbicidal rating ECHORC” value ([4]; 0.0625 kg/ha) was 4.5 and the “Herbicidal rating ECHORC” value ([4]; 0.1250 kg/ha) was 7.5. For the same molecule, the “Herbicidal rating ECHORC” value ([4]; 0.2500 kg/ha) was 9.0, the “TRZAWR preemergence herbicidal rating” value ([5]; rate 0.0313 kg/ha) was 0.0 and the “TRZAWR preemergence herbicidal rating” value ([5]; rate 0.0625 kg/ha) was 0.0. For the same molecule, the “TRZAWR preemergence herbicidal rating” value ([5]; rate 0.1250 kg/ha) was 0.0, the “TRZAWR preemergence herbicidal rating” value ([5]; rate 0.2500 kg/ha) was 0.0 and the SETVI herbicidal rating (SETVI (Foxtail, Green); rate 0.0156 kg/ha) was 7.0. For the same molecule, the SETVI herbicidal rating (SETVI (Foxtail, Green); rate 0.0313 kg/ha) was 8.0, the SETVI herbicidal rating (SETVI (Foxtail, Green); rate 0.0625 kg/ha) was 9.0 and the SETVI herbicidal rating (SETVI (Foxtail, Green); rate 0.1250 kg/ha) was 9.0. It also gave an ECHCG herbicidal rating (ECHCG (Barnyardgrass); rate 0.0156 kg/ha) of 9.0, an ECHCG herbicidal rating (ECHCG (Barnyardgrass); rate 0.0313 kg/ha) of 9.0 and an ECHCG herbicidal rating (ECHCG (Barnyardgrass); rate 0.0625 kg/ha) of 9.0. For the same molecule, the ECHCG herbicidal rating (ECHCG (Barnyardgrass); rate 0.1250 kg/ha) was 9.0, the “IPOHE preemergence herbicidal rating” value ([6]; rate 0.0313 kg/ha) was 0.0 and the “IPOHE preemergence herbicidal rating” value ([6]; rate 0.0625 kg/ha) was 1.5. The “IPOHE preemergence herbicidal rating” value ([6]; rate 0.1250 kg/ha) was 7.5, the “IPOHE preemergence herbicidal rating” value ([6]; rate 0.2500 kg/ha) was 9.0 and the “IPOHE preemergence herbicidal rating” value ([6]; rate 0.5000 kg/ha) was 9.0. It also gave an ORYSAT herbicidal rating (ORYSAT (Rice, Tebonnet); rate 0.0156 kg/ha) of 3.5, an ORYSAT herbicidal rating (ORYSAT (Rice, Tebonnet); rate 0.0313 kg/ha) of 5.5 and an ORYSAT herbicidal rating (ORYSAT (Rice, Tebonnet); rate 0.0625 kg/ha) of 6.0. For the same molecule, the ORYSAT herbicidal rating (ORYSAT (Rice, Tebonnet); rate 0.1250 kg/ha) was 8.5.

— US20020137929A1, “1 - (3-heterocyclylphenyl) isothiourea, -isourea, -guanidine and -amidine herbicidal agents” (Intellectual Property Department, BASF Aktiengesellschaft, priority 1998, published 2002)
